Measured values as given in ChEMBL document CHEMBL1201862, “PubChem BioAssay data set” (2004).
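In this assay, cells in 96-well plates receive the compound at five concentrations for 48 hours. Endpoints are linearly interpolated between the surrounding concentrations. GI50 marks 50% less growth.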 Active and inactive are the calls of the source. Rule as the data show it: active = GI50 up to about 1.1 µM and inactive = higher.

Tests used:
Experiment in all cases: inhibition of tumour cell growth, NCI panel, 48 h
HCT-15 = system: HCT-15
CAKI-1 = system: CAKI-1
HT-29 = system: HT-29
TK-10 = system: TK-10
MOLT-4 = system: MOLT-4
LXFL 529 = system: LXFL 529
HL-60 = system: HL-60
HCC 2998 = system: HCC 2998
UACC-62 = system: UACC-62
786-0 = system: 786-0
LOX IMVI = system: LOX IMVI
IGROV-1 = system: IGROV-1
COLO 205 = system: COLO 205
NCI-H226 = system: NCI-H226
HOP-92 = system: HOP-92
RXF 393 = system: RXF 393
MDA-N = system: MDA-N
NCI/ADR-RES = system: NCI/ADR-RES
T47D = system: T47D
DU-145 = system: DU-145

| Structure (SMILES) | GI50 (HCT-15) [µM] | GI50 (CAKI-1) | GI50 (HT-29) | GI50 (TK-10) | GI50 (MOLT-4) | GI50 (LXFL 529) | GI50 (HL-60) | GI50 (HCC 2998) | GI50 (UACC-62) | GI50 (786-0) | GI50 (LOX IMVI) | GI50 (IGROV-1) | GI50 (COLO 205) | GI50 (NCI-H226) | GI50 (HOP-92) | GI50 (RXF 393) | GI50 (MDA-N) | GI50 (NCI/ADR-RES) | GI50 (T47D) | GI50 (DU-145) |
| --- | --- | --- | --- | --- | --- | --- | --- | --- | --- | --- | --- | --- | --- | --- | --- | --- | --- | --- | --- | --- |
| COc1ccc(C(=O)O/N=C2\CCCC\C2=C/c2ccccc2)cc1 | > 100 | 81.5 µM (inactive) | > 100 µM (inactive) | 68.7 µM (inactive) | > 100 µM (inactive) | > 100 µM (inactive) | > 100 µM (inactive) | > 100 µM (inactive) | > 100 µM (inactive) | 33.8 µM (inactive) | > 100 µM (inactive) | > 100 µM (inactive) | > 100 µM (inactive) |  |  |  |  |  |  |  |
| O=C(/C=C/c1ccccc1)CC(=O)CCC(=O)Nc1ccc(Cl)cc1 | > 100 | 57.8 µM (inactive) | 88.9 µM (inactive) | > 100 µM (inactive) | > 100 µM (inactive) | 6.75 µM (inactive) | > 100 µM (inactive) | 80.7 µM (inactive) | 2.69 µM (inactive) | > 100 µM (inactive) | 39.2 µM (inactive) | 86.1 µM (inactive) | > 100 µM (inactive) | > 100 µM (inactive) |  |  |  |  |  |  |
| CC#COP(=O)(OCC)OCC | > 100 | > 100 µM (inactive) | > 100 µM (inactive) | > 100 µM (inactive) | > 100 µM (inactive) | > 100 µM (inactive) | 17.7 µM (inactive) | > 100 µM (inactive) | > 100 µM (inactive) | > 100 µM (inactive) | > 100 µM (inactive) | > 100 µM (inactive) | > 100 µM (inactive) | 23.9 µM (inactive) |  |  |  |  |  |  |
| C/C=C/C(O)P(=O)(OC)OC (configuration not stated) | 0.309 | 0.589 µM (active) | 0.33 µM (active) | 0.366 µM (active) | 0.3 µM (active) |  | 0.256 µM (active) | 0.27 µM (active) | 0.27 µM (active) | 0.173 µM (active) | 0.187 µM (active) | 0.275 µM (active) | 0.184 µM (active) | 0.332 µM (active) | < 0.0385 µM (active) | 0.215 µM (active) | 0.217 µM (active) | 0.473 µM (active) | 0.334 µM (active) | 0.34 µM (active) |
| O=C(O)C(O)C(O)C(O)C(=O)CO (configuration not stated) | > 100 | > 100 µM (inactive) | > 100 µM (inactive) | > 100 µM (inactive) | > 100 µM (inactive) |  | > 100 µM (inactive) | > 100 µM (inactive) | > 100 µM (inactive) | > 100 µM (inactive) | > 100 µM (inactive) | > 100 µM (inactive) | > 100 µM (inactive) | > 100 µM (inactive) | > 100 µM (inactive) | > 100 µM (inactive) | > 100 µM (inactive) | > 100 µM (inactive) | > 100 µM (inactive) | > 100 µM (inactive) |
| O=c1[nH]c2nc3ccccc3c(=O)n2/c1=C/c1ccccc1 | 29.8 | 47.4 µM (inactive) | 17.5 µM (inactive) | 53.8 µM (inactive) | 95.5 µM (inactive) |  | 56.1 µM (inactive) | 31 µM (inactive) | 28.6 µM (inactive) | 25.8 µM (inactive) | 25.2 µM (inactive) | 17.9 µM (inactive) | 33.1 µM (inactive) | 18.7 µM (inactive) | 20.7 µM (inactive) | 55 µM (inactive) | 25.6 µM (inactive) | 43.6 µM (inactive) | 40.4 µM (inactive) | 29 µM (inactive) |
| Cn1c(=O)c2c(nc(NCCCCl)n2CC(=O)O)n(C)c1=O | > 100 | > 100 µM (inactive) | > 100 µM (inactive) | > 100 µM (inactive) | 2.74 µM (inactive) |  | > 100 µM (inactive) | > 100 µM (inactive) | > 100 µM (inactive) | > 100 µM (inactive) | > 100 µM (inactive) | > 100 µM (inactive) | > 100 µM (inactive) | > 100 µM (inactive) | > 100 µM (inactive) | > 100 µM (inactive) | > 100 µM (inactive) | > 100 µM (inactive) | > 100 µM (inactive) | > 100 µM (inactive) |
| OC1c2[nH]c3ccccc3c2CCN2CCCCC12 (configuration not stated) | > 100 | > 100 µM (inactive) | > 100 µM (inactive) | > 100 µM (inactive) | > 100 µM (inactive) |  | > 100 µM (inactive) | 75.3 µM (inactive) | > 100 µM (inactive) | > 100 µM (inactive) | > 100 µM (inactive) | > 100 µM (inactive) | > 100 µM (inactive) | > 100 µM (inactive) | 51.1 µM (inactive) | > 100 µM (inactive) | > 100 µM (inactive) | > 100 µM (inactive) | > 100 µM (inactive) | > 100 µM (inactive) |
| OCCN(CCO)c1ccc2c(C(F)(F)F)cc(C(F)(F)F)nc2n1 | > 86.5 | > 100 µM (inactive) | > 100 µM (inactive) | > 100 µM (inactive) | > 100 µM (inactive) |  | > 100 µM (inactive) | > 100 µM (inactive) | > 100 µM (inactive) | > 100 µM (inactive) | > 100 µM (inactive) | > 100 µM (inactive) | > 100 µM (inactive) | > 100 µM (inactive) | > 100 µM (inactive) | > 100 µM (inactive) | > 100 µM (inactive) | > 80.4 µM (inactive) | > 100 µM (inactive) | > 100 µM (inactive) |
| Clc1ncc(Cl)c(Cl)n1 | 2.24 | 1.86 µM (inactive) | 1.36 µM (inactive) | 9.55 µM (inactive) | 1.5 µM (inactive) |  | 0.474 µM (active) | 4.21 µM (inactive) | 1.91 µM (inactive) | 1.99 µM (inactive) | 1.17 µM (inactive) | 9.66 µM (inactive) | 1.72 µM (inactive) | 4.85 µM (inactive) | 1.81 µM (inactive) | 2.05 µM (inactive) | 3.37 µM (inactive) | 3.95 µM (inactive) | 2.36 µM (inactive) | 11.8 µM (inactive) |
| c1cc(-c2ccc(Oc3ccc(-c4ccncc4)cc3)cc2)ccn1 | 3.43 | 3.22 µM (inactive) | 3.7 µM (inactive) | 7.18 µM (inactive) | 2.99 µM (inactive) |  | 2.18 µM (inactive) | 5 µM (inactive) | 7.18 µM (inactive) | 6.81 µM (inactive) | 9.18 µM (inactive) | 7.4 µM (inactive) | 3.56 µM (inactive) | 27.6 µM (inactive) | 14.1 µM (inactive) | 25.6 µM (inactive) | 2.39 µM (inactive) | 3.01 µM (inactive) | 5.13 µM (inactive) | 11.4 µM (inactive) |
| CN1C(=O)N/C(=C\c2ccc(S(=O)(=O)N/N=C\C(O)C(O)C(O)CO)cc2)C1=O (configuration not stated) | > 100 | > 100 µM (inactive) | > 100 µM (inactive) | > 100 µM (inactive) | > 100 µM (inactive) |  | > 100 µM (inactive) | > 100 µM (inactive) | > 100 µM (inactive) | > 100 µM (inactive) | > 100 µM (inactive) | > 100 µM (inactive) | > 100 µM (inactive) | > 10 µM (inactive) | > 100 µM (inactive) | > 100 µM (inactive) | > 100 µM (inactive) | > 100 µM (inactive) | > 100 µM (inactive) | > 100 µM (inactive) |
